From patent US11299492B2, “JAK kinase inhibitor compounds for treatment of respiratory disease” (THERAVANCE BIOPHARMA R&D IP, LLC, priority 2015, dated 2022)

How the values were obtained:
[1] = Dynamic moisture sorption assessment; assay type: physicochemical
Method: Dynamic moisture sorption (DMS) measurement was performed using a VTI atmospheric microbalance, SGA-100 system (VTI Corp., Hialeah, Fla. 33016). A weighed sample was used and the humidity was lowest possible value (close to 0% RH) at the start of the analysis. The DMS analysis consisted of an initial drying step (˜0% RH) for 120 minutes, followed by two cycles of sorption and desorption with a scan rate of 5% RH/step over the humidity range of 5% RH to 90% RH. The DMS run was performed isothermally at 25° C.

[2] = system: IL-13 induced STAT6 phosphorylation in BEAS-2B human lung epithelial cells; experiment: AlphaScreen JAK1 cellular potency assay (BEAS-2B); assay type: cell-based; conditions: for fold less potent than the corresponding compound of the invention in the BEAS-2B cellular assay: C-1 vs Ex 1, C-2 vs Ex 7, C-3 vs Ex 13, C-4 vs Ex 6; for BEAS-2B pIC50: IL-13 induced STAT6 phosphorylation, BEAS-2B cells
Method: The AlphaScreen JAK1 cellular potency assay was carried out by measuring interleukin-13 (IL-13, R&D Systems) induced STAT6 phosphorylation in BEAS-2B human lung epithelial cells (ATCC). The anti-STAT6 antibody (Cell Signaling Technologies) was conjugated to AlphaScreen acceptor beads (Perkin Elmer), while the anti-pSTAT6 (pTyr641) antibody (Cell Signaling Technologies) was biotinylated using EZ-Link Sulfo-NHS-Biotin (Thermo Scientific).
BEAS-2B cells were grown at 37° C. in a 5% CO2 humidified incubator in 50% DMEM/50% F-12 medium (Life Technologies) supplemented with 10% FBS (Hyclone), 100 U/mL penicillin, 100 μg/mL streptomycin (Life Technologies), and 2 mM GlutaMAX (Life Technologies). On day 1 of the assay, cells were seeded at a 7,500 cells/well density in white poly-D-lysine-coated 384-well plates (Corning) with 25 μL medium, and were allowed to adhere overnight in the incubator. On day 2 of the assay, the medium was removed and replaced with 12 L of assay buffer (Hank's Balanced Salt Solution/HBSS, 25 mM HEPES, and 1 mg/ml bovine serum albumin/BSA) containing dose-responses of test compounds. Compounds were serially diluted in DMSO and then diluted another 1000-fold in media to bring the final DMSO concentration to 0.1%. Cells were incubated with test compounds at 37° C. for 1 h, and followed by the addition of 12 μl of pre-warmed IL-13 (80 ng/ml in assay buffer) for stimulation. After incubating at 37° C. for 30 min, the assay buffer (containing compound and IL-13) was removed, and 10 μl of cell lysis buffer (25 mM HEPES, 0.1% SDS, 1% NP-40, 5 mM MgCl2, 1.3 mM EDTA, 1 mM EGTA, and supplement with Complete Ultra mini protease inhibitors and PhosSTOP from Roche Diagnostics). The plates were shaken at ambient temperature for 30 min before the addition of detection reagents. A mixture of biotin-anti-pSTAT6 and anti-STAT6 conjugated acceptor beads was added first and incubated at ambient temperature for 2 h, followed by the addition of streptavidin conjugated donor beads (Perkin Elmer). After a minimum of 2 h incubation, the assay plates were read on the EnVision plate reader.
Results were expressed as the negative logarithm of the IC50 value, pIC50.

[3] = system: IL-13 induced pSTAT6 induction in lung tissue; experiment: Murine model of IL-13 induced pSTAT6 induction in lung tissue; assay type: in vivo; conditions: mouse lung; for lung concentration smaller than that of the corresponding compound of the invention by a factor: pharmacodynamic assay, C-1 vs Ex 1, C-2 vs Ex 7, C-3 vs Ex 13, C-4 vs Ex 6; for pSTAT6 inhibition in the pharmacodynamic assay: IL-13 challenge
Method: I1-13 is an important cytokine underlying the pathophysiology of asthma (Kudlacz et al. Eur. J Pharmacol, 2008, 582, 154-161). IL-13 binds to cell surface receptors activating members of the Janus family of kinases (JAK) which then phosphorylate STAT6 and subsequently activates further transcription pathways. In the described model, a dose of IL-13 was delivered locally into the lungs of mice to induce the phosphorylation of STAT6 (pSTAT6) which is then measured as the endpoint.
Adult balb/c mice from Harlan were used in the assay. On the day of study, animals were lightly anesthetized with isoflurane and administered either vehicle or test compound (0.5 mg/mL, 50 μL total volume over several breaths) via oral aspiration. Animals were placed in lateral recumbency post dose and monitored for full recovery from anesthesia before being returned to their home cage. Four hours later, animals were once again briefly anesthetized and challenged with either vehicle or IL-13 ([…] total dose delivered, 50 μL total volume) via oral aspiration before being monitored for recovery from anesthesia and returned to their home cage. One hour after vehicle or IL-13 administration, lungs were collected for both pSTAT6 detection using an anti-pSTAT6 ELISA (rabbit mAb capture/coating antibody; mouse mAb detection/report antibody: anti-pSTAT6-pY641; secondary antibody: anti-mouse IgG-HRP) and analyzed for total drug concentration as described above in Assay 4.
Selected compounds of the invention were tested in the assay. Activity in the model is evidenced by a decrease in the level of pSTAT6 present in the lungs of treated animals at 5 hours compared to the vehicle treated, IL-13 challenged control animals. The difference between the control animals which were vehicle-treated, IL-13 challenged and the control animals which were vehicle-treated, vehicle challenged dictated the 0% and 100% inhibitory effect, respectively, in any given experiment.

[4] = Pharmacokinetics in plasma and lung in mouse; assay type: in vivo; conditions: oral aspiration, lung AUC (μg hr/g) / plasma AUC (μg hr/mL)
Method: Plasma and lung levels of test compounds and ratios thereof were determined in the following manner. BALB/c mice from Charles River Laboratories were used in the assay. Test compounds were individually formulated in 20% propylene glycol in pH 4 citrate buffer at a concentration of 0.2 mg/mL and 50 uL of the dosing solution was introduced into the trachea of a mouse by oral aspiration. At various time points (typically 0.167, 2, 6, 24 hr) post dosing, blood samples were removed via cardiac puncture and intact lungs were excised from the mice. Blood samples were centrifuged (Eppendorf centrifuge, 5804R) for 4 minutes at approximately 12,000 rpm at 4° C. to collect plasma. Lungs were padded dry, weighed, and homogenized at a dilution of 1:3 in sterile water. Plasma and lung levels of test compound were determined by LC-MS analysis against analytical standards constructed into a standard curve in the test matrix. A lung to plasma ratio was determined as the ratio of the lung AUC in μg hr/g to the plasma AUC in μg hr/mL, where AUC is conventionally defined as the area under the curve of test compound concentration vs. time.

Compound: CCc1cc(O)c(F)cc1-c1ccc2c(-c3nc4c([nH]3)CCN(C3CCN(C)CC3)C4)n[nH]c2c1 [crystalline hydrate, Crystalline hydrate of 5-ethyl-2-fluoro-4-(3-(5-(1-methylpiperidin-4-yl)-4,5,6,7-tetrahydro-1H-imidazo[4,5-c]pyridin-2-yl)-1H-indazol-6-yl)phenol]
- weight gain ([1]; humidity range of 5% to 90% relative humidity, 25° C): less than 0.12%
- hygroscopicity ([1]; two cycles of sorption and desorption, 5% to 90% RH): non-hygroscopic

Compound: CCc1cc(O)c(F)cc1-c1ccc2c(-c3nc4c([nH]3)CCN(C3CCC(C)CC3)C4)n[nH]c2c1 (stereo not drawn) [Example C-4, reference compound]
- fold less potent than the corresponding compound of the invention in the BEAS-2B cellular assay [2]: 6 fold
- lung concentration smaller than that of the corresponding compound of the invention by a factor [3]: 23

Compound: CCc1cc(O)c(F)cc1-c1ccc2c(-c3nc4c([nH]3)CCN(C[C@H]3COCCN3)C4)n[nH]c2c1 [Example 13, (S)-5-Ethyl-2-fluoro-4-(3-(5-(morpholin-3-ylmethyl)-4,5,6,7-tetrahydro-1H-imidazo[4,5-c]pyridin-2-yl)-1H-indazol-6-yl)phenol]
- Lung to Plasma ratio Assay 4 [4]: A (A denotes a ratio>100)

Compound: CCc1cc(O)c(F)cc1-c1ccc2c(-c3nc4c([nH]3)CCN(C3CN(CCC#N)C3)C4)n[nH]c2c1 [Example 1-8]
- BEAS-2B pIC50 [2]: A (A represents a pIC50 value≥8 (IC50≤10 nM))

Compound: CCc1cc(O)c(F)cc1-c1ccc2c(-c3nc4c([nH]3)CCN(C[C@@H]3CCCN3C)C4)n[nH]c2c1 [Example 11, (S)-5-ethyl-2-fluoro-4-(3-(5-((1-methylpyrrolidin-2-yl)methyl)-4,5,6,7-tetrahydro-1H-imidazo[4,5-c]pyridin-2-yl)-1H-indazol-6-yl)phenol]
- Lung to Plasma ratio Assay 4 [4]: A (A denotes a ratio>100)

Compound: CCc1cc(O)c(F)cc1-c1ccc2c(-c3nc4c([nH]3)CCN(CC3CNC3)C4)n[nH]c2c1 [Example 14-7]
- Lung to Plasma ratio Assay 4 [4]: A (A denotes a ratio>100)

Compound: CCc1cc(O)c(F)cc1-c1ccc2c(-c3nc4c([nH]3)CCN(C3CC(C)C3)C4)n[nH]c2c1 (stereo not drawn) [Example C-1, 5-Ethyl-2-fluoro-4-(3-(5-(3-methylcyclobutyl)-4,5,6,7-tetrahydro-1H-imidazo[4,5-c]pyridin-2-yl)-1H-indazol-6-yl)phenol]
- lung concentration smaller than that of the corresponding compound of the invention by a factor [3]: 36

Compound: CCc1cc(O)c(F)cc1-c1ccc2c(-c3nc4c([nH]3)CCN(C[C@@H]3COCCN3)C4)n[nH]c2c1 [Example 14, (R)-5-Ethyl-2-fluoro-4-(3-(5-(morpholin-3-ylmethyl)-4,5,6,7-tetrahydro-1H-imidazo[4,5-c]pyridin-2-yl)-1H-indazol-6-yl)phenol]
- Lung to Plasma ratio Assay 4 [4]: A (A denotes a ratio>100)

Compound: CCc1cc(O)c(F)cc1-c1ccc2c(-c3nc4c([nH]3)CCN(CCNC3CC(OC)C3)C4)n[nH]c2c1 (stereo not drawn) [Example 3-30]
- BEAS-2B pIC50 [2]: A (A represents a pIC50 value≥8 (IC50≤10 nM))

Compound: CCc1cc(O)c(F)cc1-c1ccc2c(-c3nc4c([nH]3)CCN(CCN3CCC[C@@H]3C)C4)n[nH]c2c1 [Example 15, (S)-5-ethyl-2-fluoro-4-(3-(5-(2-(2-methylpyrrolidin-1-yl)ethyl)-4,5,6,7-tetrahydro-1H-imidazo[4,5-c]pyridin-2-yl)-1H-indazol-6-yl)phenol]
- Lung to Plasma ratio Assay 4 [4]: A (A denotes a ratio>100)

Compound: CCc1cc(O)c(F)cc1-c1ccc2c(-c3nc4c([nH]3)CCN(CCC(C)C)C4)n[nH]c2c1 [Example C-2, reference compound]
- fold less potent than the corresponding compound of the invention in the BEAS-2B cellular assay [2]: 6 fold
- lung concentration smaller than that of the corresponding compound of the invention by a factor [3]: 52

Compound: CCc1cc(O)c(F)cc1-c1ccc2c(-c3nc4c([nH]3)CCN(CCNC3(C#N)CC3)C4)n[nH]c2c1 [Example 3-1]
- pSTAT6 inhibition in the pharmacodynamic assay [3]: exceptions

Compound: CCc1cc(O)c(F)cc1-c1ccc2c(-c3nc4c([nH]3)CCN(C3CN(C5CCS(=O)(=O)C5)C3)C4)n[nH]c2c1 (stereo not drawn) [Example 1-15]
- pSTAT6 inhibition in the pharmacodynamic assay [3]: exceptions

Compound: CCc1cc(O)c(F)cc1-c1ccc2c(-c3nc4c([nH]3)CCN(CCNC3CC(OC)C3)C4)n[nH]c2c1 (stereo not drawn) [Example 8, 5-Ethyl-2-fluoro-4-(3-(5-(2-((3-methoxycyclobutyl)amino)ethyl)-4,5,6,7-tetrahydro-1H-imidazo[4,5-c]pyridin-2-yl)-1H-indazol-6-yl)phenol]
- Lung to Plasma ratio Assay 4 [4]: A (A denotes a ratio>100)

Compound: CCc1cc(O)c(F)cc1-c1ccc2c(-c3nc4c([nH]3)CCN(CCN(C)CC(C)C)C4)n[nH]c2c1 [Example 3-33]
- Lung to Plasma ratio Assay 4 [4]: A (A denotes a ratio>100)

Compound: CCc1cc(O)c(F)cc1-c1ccc2c(-c3nc4c([nH]3)CCN(C3CN(CCOC)C3)C4)n[nH]c2c1 [Example 1-6]
- BEAS-2B pIC50 [2]: A (A represents a pIC50 value≥8 (IC50≤10 nM))

Compound: CCc1cc(O)c(F)cc1-c1ccc2c(-c3nc4c([nH]3)CCN(CC3CCCOC3)C4)n[nH]c2c1 (stereo not drawn) [Example C-3, reference compound]
- fold less potent than the corresponding compound of the invention in the BEAS-2B cellular assay [2]: 3 fold
- lung concentration smaller than that of the corresponding compound of the invention by a factor [3]: 13
